# According to the METLIN SMRT retention time set (Domingo-Almenara et al. 2019):
# Assay: gradient 5% acetonitrile 3 min, to 50% in 2 min, to 85% in 15 min, held 3 min, 100 µL/min
# Conditions: column: Zorbax Extend-C18 2.1 x 50 mm; eluents: water / acetonitrile, 0.1% formic acid
# Summary of the method: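 Data were gathered over 3 months by HPLC coupled to a quadrupole time-of-flight mass spectrometer, operated in positive and negative ionization mode. Mixtures of ~100 pure standards ran on a Zorbax Extend-C18 column (2.1 × 50 mm, 1.8 μm) at 100 μL/min, with water and acetonitrile each containing 0.1% formic acid and dead and dwell volumes of 40 μL and 900 μL. Retention time was read from adduct peaks picked by computer and checked manually.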
row,SMILES,RP-LC retention time [s]
1,CC1CCN(S(=O)(=O)c2ccc(-c3nnc(C(=O)NCCCN4CCCC4=O)o3)cc2)CC1,792
2,COc1ccc(N2C(=O)C3N=NN(c4ccc(F)c(Cl)c4)C3C2=O)cc1 (stereo not drawn),1010
3,CCCn1c(CCNC(=O)c2ccc(F)c(F)c2)nc2cccnc21,683
4,Cc1ccc(Nc2nc3ccncc3n(Cc3ccccc3)c2=O)cc1,778
5,CCOC(=O)CCNC(=O)N1CCC(OC2CCN(Cc3ccccc3)CC2)CC1,607
6,Cc1ccc(NC(=O)C2CCN(C(=O)C3Sc4ccccc4NC3=O)CC2)cc1F (stereo not drawn),804
7,CCC(=O)Nc1ccc(-n2cnc(C(=O)NCc3ccc(F)c(Cl)c3)c2)nc1,760
8,c1ccc(-c2nc(-c3ccc(-n4ccnc4)nc3)no2)cc1,720
9,Cn1cnc2cc(CNC(=O)c3cccc(Cl)c3)ccc21,631
10,CCn1ccc2sc(C)c(C(=O)NCc3ccc(OC)c(OC)c3)c2c1=O,716
11,O=C(Cn1cc(-c2nc(-c3ccc(Cl)cc3)no2)ccc1=O)Nc1ccc2c(c1)OCO2,986
12,c1cc2nnc(C3CCC3)n2nc1N1CCCC1,920
13,CSc1nc(N)c(C(=O)NC2CCCCC2)s1,878
14,COc1ccc(NC(=O)C2CCCN(S(=O)(=O)c3cc(-c4noc(C)n4)cs3)C2)cc1Cl (stereo not drawn),991
15,CCOC(=O)c1c(C)oc2ncnc(NCCN3CCN(c4cccc(Cl)c4)CC3)c12,860
16,COc1ccc(Cl)cc1NC(=O)NCCc1nc2cccnc2n1CC(C)C,770
17,O=C1CC(c2nc(-c3ccccn3)no2)CN1c1ccc2c(c1)OCCO2 (stereo not drawn),715
18,O=C(NC1CCN(c2cc(-c3ccc(F)cc3)[nH]n2)C1)c1ccccc1F (stereo not drawn),714
19,COc1ccccc1NC(=O)Cn1nc2c(Oc3cccc(F)c3)nccn2c1=O,867
20,CCOc1ccc(C2Cn3nnc(-c4nc(-c5ccc(C)c(C)c5)no4)c3CO2)cc1 (stereo not drawn),1290

row,SMILES,RP-LC retention time [s]
1,O=C(Nc1nnc(SCc2ccc(Br)cc2)s1)c1ccccc1F,1020
2,Cc1ccsc1C(=O)N1CCC(c2nc(CCOCC3CC3)no2)C1 (stereo not drawn),812
3,Cc1[nH]c(C(=O)N2CCCC(C(=O)NC3CCCCCC3)C2)c(C)c1C(=O)OC(C)C (stereo not drawn),944
4,O=C(NCc1ccc(Br)cc1)C1CCN(C(=O)C2Sc3ccccc3NC2=O)CC1 (stereo not drawn),782
5,C=CCn1c(=O)c2ccccc2n(Cc2nc(-c3ccc(F)c(Br)c3)no2)c1=O,1170
6,CCN(CC)CCCNC(=O)C1CCCN(c2nnc(C)c3c(C)n(-c4ccc(Cl)cc4)nc23)C1 (stereo not drawn),598
7,O=C(Cn1c2ccccc2c2ncn(Cc3nc(-c4ccccc4)no3)c(=O)c21)NC1CCCCC1,976
8,Cc1ccn2cc(CNS(=O)(=O)c3ccc(-c4ccccc4)cc3)nc2c1,588
9,O=C(Cc1ccccc1Cl)NC1CCN(c2cc(-c3ccc(F)cc3)[nH]n2)C1 (stereo not drawn),775
10,O=c1n(Cc2cc(F)cc(F)c2)nc2c(-c3nc(-c4cccc(F)c4)no3)cccn12,1050
11,Cc1noc(C2(NC(=O)C3CCC3)CCCCC2)n1,745
12,Cc1[nH]c(C(=O)N2CCC(CC(=O)NCCC(C)C)CC2)c(C)c1C,813
13,CNC(=O)c1cc(C)nc2c(C)cc(C)cc12,568
14,CCn1nc2ccc(S(=O)(=O)N3CCOCC3)cn2c1=O,645
15,O=C(NCCc1csc(-c2cccs2)n1)C1CCN(C(=O)c2cccc(F)c2)CC1,768
16,CCCN1C(=O)Cc2ccccc2C1C(=O)NCc1ccco1 (stereo not drawn),721
17,C=CCn1c(=O)c2ccccc2n(Cc2nc(-c3ccccc3OC)no2)c1=O,940
18,Cc1ccn2c(Nc3ccccc3C)c(-c3cccc(O)c3)nc2c1,673
19,Cc1ccc(Nc2nc(C(=O)NCCc3cnc[nH]3)nc3ccccc23)cc1,590
20,CCN1C(=O)c2cccnc2Sc2cc(NC(=O)c3ccc(Cl)s3)ccc21,932

# Other lines, results leading:
row,RP-LC retention time [s],SMILES
1,782,O=C(C1CCCC1)N1CCN(c2cc(-c3ccccc3)[nH]n2)CC1
2,808,COc1ccc(C(=O)N2CCC(COc3ccc(C(=O)NC4CC4)cc3)CC2)c(C)c1
3,854,CC(C)c1ccc(N2C(=O)CN(Cc3ccccc3)C3CS(=O)(=O)CC32)cc1 (stereo not drawn)
4,1100,N#Cc1cccc(Cn2nc(-c3nc(-c4ccc(Cl)cc4)no3)ccc2=O)c1
5,743,COc1ccc(N2CC(c3nc(-c4ccc(OC)c(OC)c4)no3)CC2=O)c(OC)c1 (stereo not drawn)
6,704,Cc1sc2cc(C(=O)N3CCN(c4ccccc4F)CC3)[nH]c2c1CN1CCOCC1
7,560,Fc1cccc(CN2CCC(N3CC4(CCCCC4)C3c3ccncc3)CC2)c1 (stereo not drawn)
8,763,COc1ccc(-c2nc3sc(C(=O)N4CCOCC4)c(C)n3c2NC(C)(C)C)cc1
9,1030,CCOC(=O)c1ccccc1NC(=O)Cn1cccc(-c2nc(-c3ccccc3)no2)c1=O
10,673,O=C1CCCN1c1ccc(Cn2nc3c(S(=O)(=O)N4CCCC4)cccn3c2=O)cc1
11,814,Cc1cccc(NC(=O)NC2CCN(c3ccccc3)C2=O)c1 (stereo not drawn)
12,1070,CC(C)c1ccc(S(=O)(=O)N2CCC(C(=O)NCc3csc(-c4ccccc4)n3)CC2)cc1
13,724,COC[C@@H]1OCCN(Cc2ccc(C)c(C)c2)[C@H]1c1ccccc1
14,674,O=C(NC1CC1)C1CCN(c2nc3ncn(CC(=O)N4CCc5ccccc5C4)c(=O)c3s2)CC1
15,577,Fc1cccc(-c2nc(Cn3ccnc3)no2)c1
16,761,CCOc1ccccc1CNS(=O)(=O)c1ccc2c(c1)CCCC(=O)N2
17,964,CCOc1ccc(-c2noc(Cn3nc(-c4ccccc4F)ccc3=O)n2)cc1OC
18,958,Cc1ccc(CNC(=O)C2CCN(c3nccnc3Sc3ccccc3)CC2)o1
19,638,O=C(Nc1ccccc1)N1CCC(CCOc2cccnc2)CC1
20,742,COC1CCC12CCN(C(=O)Nc1ccc3c(c1)OCCO3)CC2 (stereo not drawn)
21,641,CCOC(=O)Cc1ccc(NC(=O)N2CCN(CC)c3ncccc32)cc1
22,772,Cc1cc(-c2ccc(S(=O)(=O)N3CCC(C(=O)N4CCCCCC4)CC3)o2)n[nH]1
23,990,Cc1ccc(-c2nnc(N3CCC(C(=O)NCCC4=CCCCC4)CC3)o2)cc1
24,1050,CCN1C(=O)c2cc(S(=O)(=O)Nc3ccc(F)c(F)c3)ccc2Oc2cccnc21

row,RP-LC retention time [s],SMILES
1,731,CCCN(CCC)S(=O)(=O)c1cccc(-c2cn3cc(C)ccc3n2)c1
2,1140,COc1cc(-c2noc(Cn3ncn4nc(-c5cc(C)ccc5C)cc4c3=O)n2)cc(OC)c1OC
3,608,O=C(c1nc(-c2ccnc(N3CCOCC3)c2)no1)N1CCN(C2CCCCC2)CC1
4,1290,c1ccc(-c2nc3cc(-c4noc(-c5ccncc5)n4)ccc3o2)cc1
5,741,CCC(=O)N1CCCn2nc(-c3ccc(F)cc3)cc2C1
6,868,CCCN1C(=O)c2c(C(=O)NCc3ccccc3Cl)ncn2CC1(C)C(=O)NC1CCCC1 (stereo not drawn)
7,1100,O=S(=O)(c1ccc2nc(N3CCN(c4cccc(Cl)c4)CC3)ccc2c1)N1CCCC1
8,597,Cc1ccc(-c2[nH]ncc2CN2CCC3(CC2)CC(C)(O)CCO3)cc1 (stereo not drawn)
9,661,COc1ccc(NC(=O)Cn2nc3cc(-c4ccccc4)nc(C)n3c2=O)cc1
10,840,O=C(N[C@H]1C[C@@H]2C[C@H]1CN2C(=O)Nc1ccc(C(F)(F)F)cc1)c1cccs1
11,1150,O=S(=O)(c1ccc(Cl)cc1)N1CCc2nc(-c3ccc(F)cc3)ncc2C1
12,870,CCc1ccc(NC(=O)N2CCC(c3nc(C(=O)N4CCCC4)c(C)o3)CC2)cc1
13,658,Cc1nc(N)nc(Nc2ccc(C#N)cc2)c1Br
14,899,COc1ccc(Cl)cc1NC(=O)NC1CCN(c2ccc(F)cc2)C1=O (stereo not drawn)
15,880,Cc1noc(C)c1S(=O)(=O)N1CCCn2nc(-c3cccs3)cc2C1
16,559,Cc1nc(-c2ccccc2)cc2nn(CC(=O)NCc3ccc(F)cc3)c(=O)n12
17,1040,O=C(Cc1ccccc1)NCc1nc(-c2ccc(-c3csc(C4CC4)n3)cc2)no1
18,1030,Cc1ccc(-c2cc(NC(=O)Cc3ccccc3C)on2)s1
19,867,O=c1c2nc(-c3ccc(F)cc3)cn2ccn1-c1cccc(Cl)c1
20,722,O=C(NCCn1nnc2cc(C(=O)N3CCCC3)ccc21)Nc1cccc(Br)c1
21,723,O=C(Nc1ccc(F)cc1)N1CCC(N2CCN(Cc3ccccc3)C(=O)C2=O)CC1
22,1020,CCOC(=O)c1c(S(=O)(=O)N2CCC(C(=O)Nc3ccc(C(C)C)cc3)CC2)c(C)n(C)c1C
23,958,N#Cc1cccc(NC(=O)Cn2cccc(-c3nc(-c4ccc(Br)cc4)no3)c2=O)c1
24,1100,CCCN1C(=O)COc2ccc(-c3noc(Cc4cccc(F)c4)n3)cc21
